From ChEMBL document CHEMBL3885881, “DrugMatrix”

Species: Rattus norvegicus
Assay: DrugMatrix - Regimen: Daily Repeat
Format: toxicity, organism-based, Sprague-Dawley
Set-up: regimen Daily Repeat, gender Male, age 6-8 weeks
Conditions: in vivo, po, route oral GAVAGE, […]; for ABSOLUTE BASOPHIL / ABSOLUTE EOSINOPHIL / ABSOLUTE LYMPHOCYTE / ABSOLUTE MONOCYTE / ABSOLUTE SEGMENTED NEUTROPHIL / BASOPHIL / EOSINOPHIL / ERYTHROCYTE COUNT / HEMATOCRIT / HEMOGLOBIN / LEUKOCYTE COUNT / LYMPHOCYTE / MEAN CORPUSCULAR HEMOGLOBIN / MEAN CORPUSCULAR HEMOGLOBIN CONCENTRATION / MEAN CORPUSCULAR VOLUME / MONOCYTE / NEUTROPHIL / NUCLEATED RED BLOOD CELLS / PLATELET COUNT: tissue Blood; for ALANINE AMINOTRANSFERASE / ALKALINE PHOSPHATASE / ASPARTATE AMINOTRANSFERASE / BLOOD UREA NITROGEN / CARBON DIOXIDE / CHLORIDE / CHOLESTEROL / CREATINE PHOSPHOKINASE / CREATININE / GLUCOSE / LACTATE DEHYDROGENASE / LIPASE / PHOSPHORUS / POTASSIUM / SODIUM / TOTAL BILIRUBIN / TOTAL PROTEIN / URIC ACID: tissue Plasma
[1] = 36 mg/kg, 120 h, dose level Low, time 5 day
[2] = 386 mg/kg, 72 h, dose level High, time 3 day
[3] = 386 mg/kg, 120 h, dose level High, time 5 day

c1ccc2c(c1)Nc1ccccc1S2 [PHENOTHIAZINE]
ABSOLUTE BASOPHIL [1]: 0 CELLS/uL | ABSOLUTE EOSINOPHIL [1]: 85 CELLS/uL | ABSOLUTE LYMPHOCYTE [1]: 7942.67 CELLS/uL | ABSOLUTE MONOCYTE [1]: 54.67 CELLS/uL | ABSOLUTE SEGMENTED NEUTROPHIL [1]: 984.33 CELLS/uL | BASOPHIL [1]: 0% | EOSINOPHIL [1]: 1% | ERYTHROCYTE COUNT [1]: 5.36 x10E6/uL | HEMATOCRIT [1]: 33.6% | HEMOGLOBIN [1]: 13.03 G/DL | LEUKOCYTE COUNT [1]: 9.07 x10E3/uL | LYMPHOCYTE [1]: 87.67% | MEAN CORPUSCULAR HEMOGLOBIN [1]: 24.33 pg | MEAN CORPUSCULAR HEMOGLOBIN CONCENTRATION [1]: 38.8 G/DL | MEAN CORPUSCULAR VOLUME [1]: 62.63 fL | MONOCYTE [1]: 0.67% | NEUTROPHIL [1]: 10.67% | NUCLEATED RED BLOOD CELLS [1]: 0 /100WBC | PLATELET COUNT [1]: 1083 x10E3/uL | ALANINE AMINOTRANSFERASE [1]: 54.67 u/L | ALKALINE PHOSPHATASE [1]: 331 u/L | ASPARTATE AMINOTRANSFERASE [1]: 95.67 u/L | BLOOD UREA NITROGEN [1]: 13.33 mg/dL | CARBON DIOXIDE [1]: 27 mmol/L | CHLORIDE [1]: 101.67 MEQ/L | CHOLESTEROL [1]: 59.67 mg/dL | CREATINE PHOSPHOKINASE [1]: 568.67 u/L | CREATININE [1]: 0.17 mg/dL | GLUCOSE [1]: 162.33 mg/dL | LACTATE DEHYDROGENASE [1]: 99.67 u/L | LIPASE [1]: 10.33 u/L | PHOSPHORUS [1]: 9.13 mg/dL | POTASSIUM [1]: 5.69 MEQ/L | SODIUM [1]: 147.3 MEQ/L | TOTAL BILIRUBIN [1]: 0.2 mg/dL | TOTAL PROTEIN [1]: 5.73 G/DL | URIC ACID [1]: 0.57 mg/dL | ABSOLUTE BASOPHIL [2]: 0 CELLS/uL | ABSOLUTE EOSINOPHIL [2]: 0 CELLS/uL | ABSOLUTE LYMPHOCYTE [2]: 9449.33 CELLS/uL | ABSOLUTE MONOCYTE [2]: 225 CELLS/uL | ABSOLUTE SEGMENTED NEUTROPHIL [2]: 1559 CELLS/uL | BASOPHIL [2]: 0% | EOSINOPHIL [2]: 0% | ERYTHROCYTE COUNT [2]: 6.26 x10E6/uL | HEMATOCRIT [2]: 38.97% | HEMOGLOBIN [2]: 14.93 G/DL | LEUKOCYTE COUNT [2]: 11.23 x10E3/uL | LYMPHOCYTE [2]: 84.67% | MEAN CORPUSCULAR HEMOGLOBIN [2]: 23.83 pg | MEAN CORPUSCULAR HEMOGLOBIN CONCENTRATION [2]: 38.3 G/DL | MEAN CORPUSCULAR VOLUME [2]: 62.3 fL | MONOCYTE [2]: 2% | NEUTROPHIL [2]: 13.33% | NUCLEATED RED BLOOD CELLS [2]: 0 /100WBC | PLATELET COUNT [2]: 976.33 x10E3/uL | ALANINE AMINOTRANSFERASE [2]: 78.33 u/L | ALKALINE PHOSPHATASE [2]: 354.33 u/L | ASPARTATE AMINOTRANSFERASE [2]: 109.33 u/L | BLOOD UREA NITROGEN [2]: 12.67 mg/dL | CARBON DIOXIDE [2]: 29.67 mmol/L | CHLORIDE [2]: 97 MEQ/L | CHOLESTEROL [2]: 128 mg/dL | CREATINE PHOSPHOKINASE [2]: 511 u/L | CREATININE [2]: 0.21 mg/dL | GLUCOSE [2]: 125 mg/dL | LACTATE DEHYDROGENASE [2]: 138.67 u/L | LIPASE [2]: 40.67 u/L | PHOSPHORUS [2]: 7.87 mg/dL | POTASSIUM [2]: 5.77 MEQ/L | SODIUM [2]: 142 MEQ/L | TOTAL BILIRUBIN [2]: 0.7 mg/dL | TOTAL PROTEIN [2]: 5.53 G/DL | URIC ACID [2]: 0.6 mg/dL | ABSOLUTE BASOPHIL [3]: 0 CELLS/uL | ABSOLUTE EOSINOPHIL [3]: 0 CELLS/uL | ABSOLUTE LYMPHOCYTE [3]: 8085.67 CELLS/uL | ABSOLUTE MONOCYTE [3]: 101 CELLS/uL | ABSOLUTE SEGMENTED NEUTROPHIL [3]: 1546.67 CELLS/uL | BASOPHIL [3]: 0% | EOSINOPHIL [3]: 0% | ERYTHROCYTE COUNT [3]: 5 x10E6/uL | HEMATOCRIT [3]: 31.27% | HEMOGLOBIN [3]: 12.03 G/DL | LEUKOCYTE COUNT [3]: 9.73 x10E3/uL | LYMPHOCYTE [3]: 82.67% | MEAN CORPUSCULAR HEMOGLOBIN [3]: 24.07 pg | MEAN CORPUSCULAR HEMOGLOBIN CONCENTRATION [3]: 38.53 G/DL | MEAN CORPUSCULAR VOLUME [3]: 62.43 fL | MONOCYTE [3]: 1% | NEUTROPHIL [3]: 16.33% | NUCLEATED RED BLOOD CELLS [3]: 0 /100WBC | PLATELET COUNT [3]: 1551.67 x10E3/uL | ALANINE AMINOTRANSFERASE [3]: 64.67 u/L | ALKALINE PHOSPHATASE [3]: 210.67 u/L | ASPARTATE AMINOTRANSFERASE [3]: 87.67 u/L | BLOOD UREA NITROGEN [3]: 15.33 mg/dL | CARBON DIOXIDE [3]: 27.67 mmol/L | CHLORIDE [3]: 101 MEQ/L | CHOLESTEROL [3]: 108.33 mg/dL | CREATINE PHOSPHOKINASE [3]: 236 u/L | CREATININE [3]: 0.23 mg/dL | GLUCOSE [3]: 135 mg/dL | LACTATE DEHYDROGENASE [3]: 68.67 u/L | LIPASE [3]: 11.33 u/L | PHOSPHORUS [3]: 9.1 mg/dL | POTASSIUM [3]: 5.66 MEQ/L | SODIUM [3]: 145.9 MEQ/L | TOTAL BILIRUBIN [3]: 0.33 mg/dL | TOTAL PROTEIN [3]: 5.3 G/DL | URIC ACID [3]: 0.77 mg/dL
